These results are taken from patent US20240140943A1, “COMPETITIVE AND NONCOMPETITIVE INHIBITORS OF THE MUSCARINIC ACETYLCHOLINE RECEPTOR M5” (Vanderbilt University, priority 2021, published 2024).

This experiment deals with T1, human M5 receptors (hM5) (Homo sapiens, UniProt P08912).
T1 construct: expressed in transfected cells
T1 sequence (P08912 1-532): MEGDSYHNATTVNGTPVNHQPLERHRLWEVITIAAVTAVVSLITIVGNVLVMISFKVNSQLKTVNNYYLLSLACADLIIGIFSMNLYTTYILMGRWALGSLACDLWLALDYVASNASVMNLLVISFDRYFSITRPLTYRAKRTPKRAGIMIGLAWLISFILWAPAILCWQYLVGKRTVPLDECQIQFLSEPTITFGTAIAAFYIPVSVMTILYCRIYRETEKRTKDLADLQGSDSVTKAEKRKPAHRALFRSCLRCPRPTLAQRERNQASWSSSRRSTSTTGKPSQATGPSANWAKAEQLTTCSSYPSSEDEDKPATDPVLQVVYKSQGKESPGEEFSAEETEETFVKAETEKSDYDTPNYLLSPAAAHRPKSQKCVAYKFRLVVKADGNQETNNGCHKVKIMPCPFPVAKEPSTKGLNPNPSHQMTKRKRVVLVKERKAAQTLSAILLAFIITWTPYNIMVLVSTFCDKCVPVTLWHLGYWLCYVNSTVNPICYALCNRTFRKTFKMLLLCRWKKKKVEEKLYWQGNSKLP
Kind of experiment: Cell-based functional calcium mobilization assay of mAChR M5 activity. To be noted: CHO cells stably expressing hM5; for IC50: calcium mobilization, inhibition of EC80 acetylcholine response; for EC80 MIN: minimum response at EC80 acetylcholine addition, normalized to maximum acetylcholine response. As for the experimental part:
All functional cell-based assays were performed essentially as previously described (Mario et al., Mol. Pharm. 2009, 75(3), 577-588; Brady et al., J. Pharm. & Exp. Ther. 2008, 327, 941-953). Initial, single point (10 μM) compound characterization was performed in stable Chinese Hamster Ovary (CHO) cell lines constitutively expressing human M5 receptors. These were plated at 15,000 cells per 20 μL per well in Greiner 384-well black-walled, TC-treated, clear-bottomed plates (Fisher) in Ham's F12 medium supplemented with 10% FBS and 20 mM HEPES. Cells were incubated overnight at 37° C. under 5% CO2. The following day, medium was exchanged with assay buffer (Hank's Balanced Salt Solution supplemented with 20 mM HEPES and 2.5 mM Probenecid, pH 7.4) leaving 20 μL of assay buffer in each well. This was followed by the addition of 20 μL of 2.3 μM of Fluo-4 AM (Invitrogen) in assay buffer (final concentration 1.15 μM). The cells were then incubated 50 minutes at 37° C. under 5% CO2. The assay buffer plus dye was then exchanged with fresh assay buffer leaving a volume of 20 μL in each well. Test compounds were diluted into assay buffer to a 2× (20 μM) concentration in 0.2% dimethylsulfoxide (DMSO) in columns 3-22 with matching DMSO concentration in columns 1, 2, 23, and […]; compounds were added to the assay for a final concentration of 10 μM and a final DMSO concentration of 0.1%. Acetylcholine (Sigma-Aldrich) was prepared to provide 5× concentrations of EC20, EC80, and ECmax in the triple-addition assay, providing a signal window to view agonism, potentiation, and inhibition of the acetylcholine response as well as a means to normalize to the maximum acetylcholine response.
Either an FDSS (Hamamatsu) or Panoptic (WaveFront Biosciences) kinetic imaging plate reader was used for assay execution and measurement of calcium flux. After establishing baseline fluorescence, test compounds (20 μL) were added to the cells using the reader's integrated pipettor and allowed to equilibrate for 140 seconds before addition of the EC20 concentration of acetylcholine (10 μL) along with vehicle in selected DMSO-only wells in the outer two columns. The EC80 concentration of acetylcholine (10 μL) was added 125 seconds after the EC20 addition along with ECmax concentration in the wells receiving vehicle in the second addition. The raw fluorescence data from each well was normalized to the corresponding initial fluorescence reading (static ratio). The maximum fluorescence value following each addition was determined and the minimum value within that same timeframe was subtracted for each well then normalized to the average of the ECmax maximum-minimum response, providing a % AChmax value for each addition for each well. The single point values represent mean values determined within the EC80 addition timeframe obtained from at least three independent determinations performed in triplicate or greater (error bars represent +/−SEM) unless otherwise specified.
Further characterization of test compounds (compound potency and mAChR subtype-selectivity) was performed on the FDSS with calcium mobilization assays performed as previously described (Mario et al., 2009; Brady et al., 2008) and in a format similar to that described above using the same reagents. CHO cells stably expressing hM1, hM2/Gqi5, hM3, hM4/Gqi5, hM5, rM1, rM2/Gqi5, rM3, rM4/Gqi5, or rM5 were plated in the manner described above. A ten-point concentration range of test compound was serial diluted in assay buffer to 2× final concentration and acetylcholine was diluted in assay buffer to 5× of the EC20 and EC80 concentrations, determined empirically and 5× maximal (2 mM final concentration) stock concentrations. FDSS protocols were carried out as described above; the static ratio was calculated and the minimum response subtracted from the maximum response within the timeframe of each addition. This max-min response was then normalized to the maximum acetylcholine response. […]
Background: Calcium assays in cells follow changes in intracellular calcium, usually with a dye or a luminescent sensor.

The IC50 is the concentration at which inhibition is half-maximal. For the compound `Cc1nnc(S(=O)(=O)[C@H]2CC[C@H](c3cn4ncnc4cc3Cl)CC2)n1C` [Compound 3, trans-7-chloro-6-(4-((4,5-dimethyl-4H-1,2,4-triazol-3-yl)sulfonyl)cyclohexyl)-[1,2,4]triazolo[1,5-a]pyridine], the IC50 stood at 0.033 µM and the “EC80 MIN” value was 2%.

Regarding `Cc1nnc(S(=O)(=O)[C@H]2CC[C@@H](c3cn4ncnc4cc3C)CC2)o1` [Compound 4, cis-2-methyl-5-((4-(7-methyl-[1,2,4]triazolo[1,5-a]pyridin-6-yl)cyclohexyl)sulfonyl)-1,3,4-oxadiazole], the IC50 was above 10 µM and the “EC80 MIN” value came to 55%.

With `Cc1nnc(S(=O)(=O)[C@H]2CC[C@H](c3cn4ncnc4cc3Cl)CC2)s1` [Compound 1, trans-2-((4-(7-chloro-[1,2,4]triazolo[1,5-a]pyridin-6-yl)cyclohexyl)sulfonyl)-5-methyl-1,3,4-thiadiazole], the IC50 was determined as 0.185 µM and the “EC80 MIN” value turned out to be 3%.

As to `Cc1nnc(S(=O)(=O)[C@H]2CC[C@H](c3cn4ncnc4cc3Cl)CC2)o1` [Compound 2, trans-2-((4-(7-chloro-[1,2,4]triazolo[1,5-a]pyridin-6-yl)cyclohexyl)sulfonyl)-5-methyl-1,3,4-oxadiazole], the IC50 was determined as 0.532 µM and the “EC80 MIN” value is reported as 3%.
